Experimental data taken from PubChem BioAssay AID1259407 (Chemical Carcinogenesis Research Information System (CCRIS), 2018).
Calls of active or inactive are those of the source. The rule behind the calls is not given here.

Tested on: CCRIS mutagenicity, Ames/micronucleus/aberration tests
Assay: CCRIS mutagenicity studies
[1] = Test System: AMES SALMONELLA TYPHIMURIUM, Strain/Indicator: TA1538, Metabolic Activation: NONE, Method: STANDARD PLATE
[2] = Test System: AMES SALMONELLA TYPHIMURIUM, Strain/Indicator: TA1538, Metabolic Activation: RAT, LIVER, S-9, AROCLOR 1254, Method: STANDARD PLATE
[3] = Test System: AMES SALMONELLA TYPHIMURIUM, Strain/Indicator: TA98, Metabolic Activation: NONE, Method: STANDARD PLATE
[4] = Test System: AMES SALMONELLA TYPHIMURIUM, Strain/Indicator: TA100, Metabolic Activation: NONE, Method: STANDARD PLATE
[5] = Test System: AMES SALMONELLA TYPHIMURIUM, Strain/Indicator: TA100, Metabolic Activation: RAT, LIVER, S-9, AROCLOR 1254, Method: STANDARD PLATE
[6] = Test System: AMES SALMONELLA TYPHIMURIUM, Strain/Indicator: TA1535, Metabolic Activation: NONE, Method: STANDARD PLATE
[7] = Test System: AMES SALMONELLA TYPHIMURIUM, Strain/Indicator: TA1537, Metabolic Activation: NONE, Method: STANDARD PLATE
[8] = Test System: AMES SALMONELLA TYPHIMURIUM, Strain/Indicator: TA97, Metabolic Activation: NONE, Method: STANDARD PLATE
[9] = Test System: AMES SALMONELLA TYPHIMURIUM, Strain/Indicator: TA102, Metabolic Activation: NONE, Method: STANDARD PLATE

In the case of CCCCCCC(CCCC)COc1ccc(-c2ccc(-c3ccc(-c4ccc(OCC(CCCC)CCCCCC)cc4)cc3)cc2)cc1 (stereo not given), the mutagenic call [1] is reported as “inactive; negative” and the mutagenic call [2] is reported as “inactive; negative”.

In the case of CCc1cccc2c3c([nH]c12)C(CC)(CC(=O)O)OCC3 (stereo not given), the mutagenic call [3] is reported as “inactive; negative”, the mutagenic call (Test System: AMES SALMONELLA TYPHIMURIUM, Strain/Indicator: TA98, Metabolic Activation: RAT, LIVER, S-9, AROCLOR 1254, Method: STANDARD PLATE) is reported as “inactive; negative” and the mutagenic call [4] is reported as “inactive; negative”. The mutagenic call [5] was “inactive; negative”, the mutagenic call [6] was “inactive; negative” and the mutagenic call (Test System: AMES SALMONELLA TYPHIMURIUM, Strain/Indicator: TA1535, Metabolic Activation: RAT, LIVER, S-9, AROCLOR 1254, Method: STANDARD PLATE) was “inactive; negative”. For the same compound, the mutagenic call [7] was “inactive; negative”, the mutagenic call (Test System: AMES SALMONELLA TYPHIMURIUM, Strain/Indicator: TA1537, Metabolic Activation: RAT, LIVER, S-9, AROCLOR 1254, Method: STANDARD PLATE) was “inactive; negative” and the mutagenic call (Test System: E. COLI, Strain/Indicator: WP2 UVRA, Metabolic Activation: NONE, Method: STANDARD PLATE) was “inactive; negative”. The mutagenic call (Test System: E. COLI, Strain/Indicator: WP2 UVRA, Metabolic Activation: RAT, LIVER, S-9, AROCLOR 1254, Method: STANDARD PLATE) was “inactive; negative”.

CC(C)CCC[C@@H](C)[C@H]1CC[C@H]2[C@@H]3C[C@@H]4O[C@@]45C[C@@H](O)CC[C@]5(C)[C@H]3CC[C@]12C was tested, and the mutagenic call [8] was “inactive; negative”, the mutagenic call [3] was “inactive; negative” and the mutagenic call [4] was “inactive; negative”. For the same compound, the mutagenic call [9] was “inactive; negative”, the mutagenic call [6] was “inactive; negative” and the mutagenic call (Test System: AMES SALMONELLA TYPHIMURIUM, Strain/Indicator: TA1538, Metabolic Activation: RAT, LIVER, S-9, AROCLOR 1254 (10%), Method: STANDARD PLATE) was “active; positive”. For the same compound, the mutagenic call (Test System: CHINESE HAMSTER V-79, Strain/Indicator: V-79/6-THIOGUANINE, Metabolic Activation: NONE) was “active; positive”, the mutagenic call (Test System: CHINESE HAMSTER V-79, Strain/Indicator: V-79/8-AZAGUANINE, Metabolic Activation: NONE) was “active; positive” and the mutagenic call (Test System: CHINESE HAMSTER V-79, Strain/Indicator: V-79/OUABAIN, Metabolic Activation: NONE) was “inactive; negative”. For the same compound, the mutagenic call (Test System: MOUSE LYMPHOMA, Strain/Indicator: L5178Y (TK+/TK-), Metabolic Activation: NONE, Method: SUSPENSION/PLATE) was “active; positive. reevaluation of results: equivocal” and the mutagenic call (Test System: Mouse lymphoma, Strain/Indicator: L5178Y (tk+/tk-), Metabolic Activation: Rat, Liver, S-9, Aroclor 1254, Method: Suspension/plate) was “inactive; inconclusive (previous evaluation negative)”.

With CCCCN(CCO)N=O the mutagenic call (Test System: AMES SALMONELLA TYPHIMURIUM, Strain/Indicator: TA1535, Metabolic Activation: RAT, LIVER, S-9, KC500 OR PHENOBARBITAL, Method: LIQUID SUSPENSION) was “active; positive”.

For CC[N+](CC)=c1ccc2nc3c(cc(N)c4ccccc43)oc-2c1, the mutagenic call [5] was “active; positive”, the mutagenic call [1] was “inactive; negative” and the mutagenic call [2] was “active; positive”.

In the case of CC(=O)ON(OCc1ccccc1)C(=O)c1ccccc1, the mutagenic call [3] is reported as “active; positive”, the mutagenic call [4] is reported as “active; positive” and the mutagenic call (Test System: AMES SALMONELLA TYPHIMURIUM, Strain/Indicator: TA100, Metabolic Activation: RAT, S-9, AROCLOR, Method: STANDARD PLATE) is reported as “active; positive”.

In the case of CC(C)(C)C1CCC2(CC1)CO2 (stereo not given), the mutagenic call [4] is reported as “inactive; negative”.

With N#Cc1nn(-c2c(Cl)cc(C(F)(F)F)cc2Cl)c(N)c1S(=O)C(F)(F)F (stereo not given) the mutagenic call (End Point: Ames Salmonella typhimurium, Test System: TA98, Metabolic Activation: None, Method: Plate incorporation) was “inactive; negative”, the mutagenic call (End Point: Ames Salmonella typhimurium, Test System: TA98, Metabolic Activation: Rat, Liver, S-9, Aroclor 1254, Method: Plate incorporation) was “inactive; negative” and the mutagenic call (End Point: Ames Salmonella typhimurium, Test System: TA100, Metabolic Activation: None, Method: Plate incorporation) was “inactive; negative”. For the same compound, the mutagenic call (End Point: Ames Salmonella typhimurium, Test System: TA100, Metabolic Activation: Rat, Liver, S-9, Aroclor 1254, Method: Plate incorporation) was “inactive; negative”, the mutagenic call (End Point: Ames Salmonella typhimurium, Test System: TA1535, Metabolic Activation: None, Method: Plate incorporation) was “inactive; negative” and the mutagenic call (End Point: Ames Salmonella typhimurium, Test System: TA1535, Metabolic Activation: Rat, Liver, S-9, Aroclor 1254, Method: Plate incorporation) was “inactive; negative”. The mutagenic call (End Point: Ames Salmonella typhimurium, Test System: TA1537, Metabolic Activation: None, Method: Plate incorporation) was “inactive; negative”, the mutagenic call (End Point: Ames Salmonella typhimurium, Test System: TA1537, Metabolic Activation: Rat, Liver, S-9, Aroclor 1254, Method: Plate incorporation) was “inactive; negative” and the mutagenic call (End Point: In vitro chromosomal aberrations, Test System: Human lymphocytes (male and female), Metabolic Activation: None) was “inactive; negative”. For the same compound, the mutagenic call (End Point: In vitro chromosomal aberrations, Test System: Human lymphocytes (male and female), Metabolic Activation: Rat, Liver, S-9, Aroclor 1254) was “inactive; negative”, the mutagenic call (End Point: In vivo micronucleus, Test System: Bone marrow polychromatic erythrocytes, Species: Mouse, Strain/Sex: CD-1/Male and female, Route: Oral) was “inactive; negative” and the mutagenic call (Test System: HGPRT mutations, Strain/Indicator: Chinese hamster V79 cells, Metabolic Activation: None) was “inactive; negative”. The mutagenic call (Test System: HGPRT mutations, Strain/Indicator: Chinese hamster V79 cells, Metabolic Activation: Rat, Liver, S-9, Aroclor 1254) was “inactive; negative”.

In the case of Cc1cc([N+](=O)[O-])c(C)c2c1[nH]c1ccc(O)cc12, the mutagenic call [3] is reported as “active; positive”, the mutagenic call (Test System: AMES SALMONELLA TYPHIMURIUM, Strain/Indicator: TA98, Metabolic Activation: RAT LIVER S-9, AROCLOR 1254, Method: STANDARD PLATE) is reported as “inactive; negative” and the mutagenic call [4] is reported as “inactive; negative”. The mutagenic call (Test System: AMES SALMONELLA TYPHIMURIUM, Strain/Indicator: TA100, Metabolic Activation: RAT LIVER S-9, AROCLOR 1254, Method: STANDARD PLATE) was “inactive; negative”, the mutagenic call [7] was “active; positive” and the mutagenic call (Test System: AMES SALMONELLA TYPHIMURIUM, Strain/Indicator: TA1537, Metabolic Activation: RAT LIVER S-9, AROCLOR 1254, Method: STANDARD PLATE) was “active; positive”. For the same compound, the mutagenic call (Test System: AMES SALMONELLA TYPHIMURIUM, Strain/Indicator: TA1977, Metabolic Activation: NONE, Method: STANDARD PLATE) was “active; positive” and the mutagenic call (Test System: AMES SALMONELLA TYPHIMURIUM, Strain/Indicator: TA1977, Metabolic Activation: RAT LIVER S-9, AROCLOR 1254, Method: STANDARD PLATE) was “active; positive”.

In the case of N/C(=N\O)c1cc(O)c(O)c(O)c1, the mutagenic call [8] is reported as “active; positive”, the mutagenic call (Test System: AMES SALMONELLA TYPHIMURIUM, Strain/Indicator: TA97, Metabolic Activation: RAT, LIVER, S-9, DELOR 103, Method: STANDARD PLATE) is reported as “active; positive” and the mutagenic call [3] is reported as “inactive; negative”. The mutagenic call (Test System: AMES SALMONELLA TYPHIMURIUM, Strain/Indicator: TA98, Metabolic Activation: RAT, LIVER, S-9, DELOR 103, Method: STANDARD PLATE) was “inactive; negative”, the mutagenic call [4] was “inactive; negative” and the mutagenic call (Test System: AMES SALMONELLA TYPHIMURIUM, Strain/Indicator: TA100, Metabolic Activation: RAT, LIVER, S-9, DELOR 103, Method: STANDARD PLATE) was “inactive; negative”. For the same compound, the mutagenic call [9] was “inactive; negative” and the mutagenic call (Test System: AMES SALMONELLA TYPHIMURIUM, Strain/Indicator: TA102, Metabolic Activation: RAT, LIVER, S-9, DELOR 103, Method: STANDARD PLATE) was “inactive; negative”.
